What was measured:
[1] = target: Acyl-protein thioesterase 1 (Homo sapiens) (UniProt O75608); assay: in situ APT1/APT2 inhibitor potency by ABPP – HeLa cells, in situ treatment, fluorescence gel, late-stage follow-up (AID 743119); conditions: gel-based ABPP FP-Rh fluorescence, LYPLA1
[2] = target: Acyl-protein thioesterase 2 (Homo sapiens) (UniProt O95372); assay: as above; conditions: gel-based ABPP FP-Rh fluorescence, LYPLA2
Sequence of Acyl-protein thioesterase 2 (Homo sapiens) (O95372 whole entry, looked up): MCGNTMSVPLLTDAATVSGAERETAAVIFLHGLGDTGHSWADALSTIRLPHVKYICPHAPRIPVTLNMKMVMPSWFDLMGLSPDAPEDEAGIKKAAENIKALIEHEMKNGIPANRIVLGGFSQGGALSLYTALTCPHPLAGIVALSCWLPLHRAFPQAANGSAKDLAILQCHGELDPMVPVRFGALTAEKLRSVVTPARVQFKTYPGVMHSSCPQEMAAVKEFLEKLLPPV

Sequence of Acyl-protein thioesterase 1 (Homo sapiens) (O75608 whole entry, looked up): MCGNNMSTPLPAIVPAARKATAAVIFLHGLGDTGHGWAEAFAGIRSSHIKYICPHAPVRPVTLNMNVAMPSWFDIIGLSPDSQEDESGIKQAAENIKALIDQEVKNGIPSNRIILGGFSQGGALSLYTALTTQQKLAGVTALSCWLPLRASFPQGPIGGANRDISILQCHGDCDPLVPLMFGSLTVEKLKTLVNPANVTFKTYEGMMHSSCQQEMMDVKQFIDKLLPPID

Compound: O=C(ON1C(=O)C2CN(C(=O)N3CCOCC3)CCN2C1=O)N1CCC(CCc2ccc(Cl)cc2)CC1 (configuration not stated)
- IC50 [1]: 87 nM
- IC50 [2]: 143 nM

Source: PubChem BioAssay AID743119 (The Scripps Research Institute Molecular Screening Center, 2013)
